According to patent US20230265151A1, “GIP/GLP1 CO-AGONIST COMPOUNDS” (priority 2020, published 2023):
Read-outs that look alike come from different tables or passages of the source.

Columns and labels:
[1] = target: T1, human Gcg receptor (hGcgR) (Homo sapiens, UniProt P47871); assay: [125I]-Glucagon binding, SPA with membranes of HEK293 cells expressing hGcgR; settings: human GcgR; geometric mean (SEM, n); read-out: Binding Affinity Ki, nM (SEM, n) hGCGR
T1 construct: expressed in transfected cells; crude membranes
T1 sequence (P47871 26-477): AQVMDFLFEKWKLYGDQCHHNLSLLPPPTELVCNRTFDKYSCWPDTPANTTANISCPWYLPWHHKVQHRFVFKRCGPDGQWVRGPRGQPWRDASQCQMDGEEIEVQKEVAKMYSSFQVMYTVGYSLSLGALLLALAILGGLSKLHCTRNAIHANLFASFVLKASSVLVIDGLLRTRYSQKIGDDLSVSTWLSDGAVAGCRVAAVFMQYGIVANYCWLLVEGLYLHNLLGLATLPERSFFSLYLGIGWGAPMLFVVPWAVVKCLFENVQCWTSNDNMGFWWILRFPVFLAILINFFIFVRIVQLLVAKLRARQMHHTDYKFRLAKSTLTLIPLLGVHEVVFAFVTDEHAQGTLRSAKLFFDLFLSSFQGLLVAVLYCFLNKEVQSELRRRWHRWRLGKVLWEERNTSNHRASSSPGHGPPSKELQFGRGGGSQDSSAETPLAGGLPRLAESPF
Protocol: Two methods are used for the preparation of crude cell membranes.
Method 1: Frozen cell pellets are lysed on ice in hypotonic buffer containing 50 mM Tris HCl, pH 7.5, and Roche Complete™ Protease Inhibitors with EDTA. […] The homogenate is centrifuged at 4° C. at 1100 × g for 10 minutes. The supernatant is collected and stored on ice while the pellets are resuspended in homogenization buffer and rehomogenized as described above. The homogenate is centrifuged at 1100 × g for 10 minutes. The second supernatant is combined with the first supernatant and centrifuged at 35000 × g for 1 hour at 4° C. The resulting membrane pellet is resuspended in homogenization buffer containing protease inhibitors at approximately 1 to 3 mg/mL, quick frozen in liquid nitrogen and stored as aliquots in a -80° C. freezer until use.
The homogenate is centrifuged at 4° C. at 1800 × g for 15 minutes. The supernatant is collected and stored on ice while the pellets are resuspended in homogenization buffer (without DNAse I) and rehomogenized as described above. The homogenate is centrifuged at 1800 × g for 15 minutes. The second supernatant is combined with the first supernatant and centrifuged an additional time at 1800 × g for 15 minutes. The overall supernatant is then centrifuged at 25000 × g for 30 minutes at 4° C. The resulting membrane pellet is resuspended in homogenization buffer (without DNAse I) containing protease inhibitors at approximately 1 to 3 mg/mL and stored as aliquots in a -80° C. freezer until use.
The human Gcg receptor binding assays are performed using a Scintillation Proximity Assay (SPA) format with wheat germ agglutinin (WGA) beads (Perkin Elmer). The binding buffer contains 25 mM 4-(2-hydroxyethyl)-1-piperazineethanesulfonic acid (HEPES), pH 7.4, 2.5 mM CaCl2, 1 mM MgCh, 0.1% (w/v) bacitracin (Research Products), 0.003% (w/v) Polyoxyethylenesorbitan monolaurate (TWEEN®-20), and Roche Complete™ Protease Inhibitors without EDTA. […] Next, 5 µL serially diluted compound or DMSO is transferred into Corning® 3632 clear bottom assay plates containing 45 µL assay binding buffer or unlabeled Gcg control (non-specific binding or NSB, at 1 µM final). […] Plates are sealed and mixed on a plate shaker (setting 6) for 1 minute and read with a PerkinElmer Trilux MicroBeta® scintillation counter after 12 hours of incubation/settling time at room temperature.
Raw CPM data for concentration curves of peptides, Gcg, GLP-1, or GIP are converted to percent inhibition by subtracting nonspecific binding (binding in the presence of excess unlabeled Gcg, GLP-1, or GIP, respectively) from the individual CPM values and dividing by the total binding signal, also corrected by subtracting nonspecific binding. Data are analyzed using four-parameter (curve maximum, curve minimum, IC50, Hill slope) nonlinear regression routines (Genedata Screener, version 12.0.4, Genedata AG, Basal, Switzerland). […] Values for Ki are reported as the geometric mean, with error expressed as the standard error of the mean (SEM) and n is equal to the number of independent replicates (determined in assays performed on different days). Geometric Means are calculated as follows: […]
The Ki Ratio (Ki for native control peptide/Ki for test compound) at each receptor and each species is calculated. The Ki Ratio is a rapid indication of the apparent affinity of a peptide compared to the native control peptide.
n=⅟x means that only one value out of the total number of replicates (x) is used to express the mean. SEM is only calculated when n=2 or greater non-qualified results exist. Means are expressed as GeoMetric means with the standard error of the mean (SEM) and the number of replicates (n) indicated in parenthesis.

[2] = target: T2, hGCGR (Homo sapiens, UniProt P47871); assay: Functional cAMP formation (HTRF) in HEK-293 clonal cells expressing hGCGR, 0.1% bovine casein, without or with 1.0% human serum albumin; type: cell-based; settings: geometric mean, read-out: hGCGR EC50, nM (SEM, n)
T2 construct: expressed in transfected cells
T2 sequence (P47871 26-477): as above
In short: (§1)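 Readings of the HTRF 665/620 nm ratio, which falls as cAMP rises, were converted to nM cAMP using a standard curve after 30 min peptide exposure at 37° C.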

[3] = target: hGLP-1R (Homo sapiens, UniProt P43220); assay: Functional cAMP formation (HTRF) in HEK-293 clonal cells expressing hGLP-1R, 0.1% bovine casein, without or with 1.0% human serum albumin; type: cell-based; parameters: expressed in transfected cells; settings: for EC50: geometric mean, read-out: hGLP-1R EC50, nM (SEM, n)
Chain of hGLP-1R (P43220 24-463): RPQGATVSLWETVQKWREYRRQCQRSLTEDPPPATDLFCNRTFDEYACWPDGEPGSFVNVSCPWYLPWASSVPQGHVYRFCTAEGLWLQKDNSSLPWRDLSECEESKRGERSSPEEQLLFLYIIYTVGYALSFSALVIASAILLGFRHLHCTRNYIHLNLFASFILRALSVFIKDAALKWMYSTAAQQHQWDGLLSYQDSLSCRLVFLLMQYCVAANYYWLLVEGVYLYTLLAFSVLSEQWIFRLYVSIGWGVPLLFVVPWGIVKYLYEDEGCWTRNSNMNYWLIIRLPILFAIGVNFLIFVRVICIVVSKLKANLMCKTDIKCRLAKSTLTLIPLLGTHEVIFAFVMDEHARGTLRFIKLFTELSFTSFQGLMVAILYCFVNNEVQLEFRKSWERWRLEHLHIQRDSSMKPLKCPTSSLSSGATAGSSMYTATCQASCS
In short: as §1

[4] = target: T3, hGIPR (Homo sapiens, UniProt P48546); assay: Functional cAMP formation (HTRF) in HEK-293 clonal cells expressing hGIPR, 0.1% bovine casein, without or with 1.0% human serum albumin; type: cell-based; settings: for EC50: geometric mean, read-out: hGIPR EC50, nM (SEM, n); for Emax: read-out: hGIPR Emax, % ± SEM
T3 construct: expressed in transfected cells
T3 sequence (P48546 22-466): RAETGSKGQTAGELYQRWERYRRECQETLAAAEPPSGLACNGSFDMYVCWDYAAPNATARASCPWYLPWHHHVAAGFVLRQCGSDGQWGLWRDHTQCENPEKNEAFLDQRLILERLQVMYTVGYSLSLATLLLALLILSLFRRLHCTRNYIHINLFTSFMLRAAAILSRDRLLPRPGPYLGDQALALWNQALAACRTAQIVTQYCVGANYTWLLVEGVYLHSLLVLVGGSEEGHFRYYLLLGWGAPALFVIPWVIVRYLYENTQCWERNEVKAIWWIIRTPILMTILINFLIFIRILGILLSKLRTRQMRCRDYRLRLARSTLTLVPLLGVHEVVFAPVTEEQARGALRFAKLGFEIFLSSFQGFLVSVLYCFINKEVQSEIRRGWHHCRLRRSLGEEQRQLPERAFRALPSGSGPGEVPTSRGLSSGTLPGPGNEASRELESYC
In short: as §1

[5] = 0.1% bovine casein and 1.0% human serum albumin, 37° C.
[6] = cAMP, incubated at 37° C., 0.1% bovine casein (no human serum albumin)
[7] = HEK293, 0.1% bovine casein and 1.0% human serum albumin, 37° C., percent of maximal response to GIP(1-42)NH2
[8] = HEK293, percent of maximal response to GIP(1-42)NH2, 37° C., 0.1% bovine casein, arithmetic mean

Compound	Ki [1]	EC50 [2, 5]	EC50 [2, 6]	EC50 [3, 5]	EC50 [3, 6]	EC50 [4, 5]	Emax [4, 7]	Emax [4, 8]	EC50 [4, 6]	Emax ([3]; HEK293, 0.1% bovine casein and 1.0% human serum albumin, 37° C., percent of maximal response to GLP-1(7-36)NH2, read-out: hGLP-1R Emax, % ± SEM)
CC[C@H](C)[C@H](NC(=O)[C@H](CC(C)C)NC(=O)[C@](C)(Cc1ccc(O)cc1)NC(=O)[C@@H](CCC(=O)O)NC(=O)[C@@H](NC(=O)[C@H](Cc1ccccc1)NC(=O)[C@H](CCC(=O)O)NC(=O)C(C)(C)NC(=O)[C@H](CCC(N)=O)NC(=O)[C@H](C)NC(=O)[C@H](CCCCNC(=O)COCCOCCNC(=O)COCCOCCNC(=O)[C@@H](N)CCCCNC(=O)CC[C@H](NC(=O)CCCCCCCCCCCCC(=O)O)C(=O)O)NC(=O)[C@H](CCCN)NC(=O)[C@H](CC(=O)O)NC(=O)[C@H](CC(C)C)NC(=O)[C@](C)(CC(C)C)NC(=O)[C@@H](NC(=O)[C@H](CO)NC(=O)[C@H](Cc1ccncc1)NC(=O)[C@H](CC(=O)O)NC(=O)[C@H](CO)NC(=O)[C@@H](NC(=O)[C@](C)(Cc1ccccc1F)NC(=O)[C@@H](NC(=O)CNC(=O)[C@H](CCC(=O)O)NC(=O)C(C)(C)NC(=O)[C@@H](N)Cc1ccc(O)cc1)[C@@H](C)O)[C@@H](C)O)[C@@H](C)CC)[C@@H](C)CC)C(=O)N[C@@H](CCC(=O)O)C(=O)NCC(=O)NCC(=O)N[C@@H](CCCCNC(=O)COCCOCCNC(=O)COCCOCCNC(=O)[C@@H](N)CCCCNC(=O)CC[C@H](NC(=O)CCCCCCCCCCCCC(=O)O)C(=O)O)C(=O)N[C@@H](CO)C(=O)N[C@@H](CO)C(=O)NCC(=O)N[C@@H](C)C(=O)N1CCC[C@H]1C(=O)N1CCC[C@H]1C(=O)N1CCC[C@H]1C(=O)N[C@@H](CO)C(N)=O [Example 34]	> 957 nM	> 9950 nM	> 9950 nM	19.8 nM	1 nM	0.213 nM	89.1 ± 2%	97.4 ± 2.34%	0.0148 nM	
CC[C@H](C)[C@H](NC(=O)[C@H](CC(C)C)NC(=O)[C@](C)(Cc1ccc(O)cc1)NC(=O)[C@@H](CCC(=O)O)NC(=O)[C@@H](NC(=O)[C@H](Cc1ccccc1)NC(=O)[C@H](CCC(=O)O)NC(=O)C(C)(C)NC(=O)[C@H](CCC(N)=O)NC(=O)[C@H](C)NC(=O)[C@H](CCCCNC(=O)COCCOCCNC(=O)COCCOCCNC(=O)CC[C@H](NC(=O)CCCCCCCCCCCCC(=O)O)C(=O)O)NC(=O)[C@H](CCCN)NC(=O)[C@H](CC(=O)O)NC(=O)[C@H](CC(C)C)NC(=O)[C@](C)(CC(C)C)NC(=O)[C@@H](NC(=O)[C@H](CO)NC(=O)[C@H](Cc1ccncc1)NC(=O)[C@H](CC(=O)O)NC(=O)[C@H](CO)NC(=O)[C@@H](NC(=O)[C@](C)(Cc1ccccc1F)NC(=O)[C@@H](NC(=O)CNC(=O)[C@H](CCC(=O)O)NC(=O)C(C)(C)NC(=O)[C@@H](N)Cc1ccc(O)cc1)[C@@H](C)O)[C@@H](C)O)[C@@H](C)CC)[C@@H](C)CC)C(=O)N[C@@H](CCC(=O)O)C(=O)NCC(=O)NCC(=O)N1CCC[C@H]1C(=O)N[C@@H](CO)C(=O)N[C@@H](CO)C(=O)NCC(=O)N[C@@H](C)C(=O)N1CCC[C@H]1C(=O)N1CCC[C@H]1C(=O)N1CCC[C@H]1C(=O)N[C@@H](CO)C(=O)N[C@@H](CCCCNC(=O)COCCOCCNC(=O)COCCOCCNC(=O)CC[C@H](NC(=O)CCCCCCCCCCCCC(=O)O)C(=O)O)C(N)=O [Example 19]	> 966 nM	> 9950 nM	> 9950 nM	24.4 nM	1.34 nM	0.438 nM	89.7 ± 2.13%	96.6 ± 2.7%	0.0158 nM	
CC[C@H](C)[C@H](NC(=O)[C@H](CC(C)C)NC(=O)[C@](C)(Cc1ccc(O)cc1)NC(=O)[C@@H](CCC(=O)O)NC(=O)[C@@H](NC(=O)[C@H](Cc1ccccc1)NC(=O)[C@H](CCC(=O)O)NC(=O)C(C)(C)NC(=O)[C@H](CCC(N)=O)NC(=O)[C@H](C)NC(=O)[C@H](CCCCNC(=O)COCCOCCNC(=O)COCCOCCNC(=O)CC[C@H](NC(=O)CCCCCCCCCCCCC(=O)O)C(=O)O)NC(=O)[C@H](CCCN)NC(=O)[C@H](CC(=O)O)NC(=O)[C@H](CC(C)C)NC(=O)[C@](C)(CC(C)C)NC(=O)[C@@H](NC(=O)[C@H](CO)NC(=O)[C@H](CCCCNC(=O)COCCOCCNC(=O)COCCOCCNC(=O)CC[C@H](NC(=O)CCCCCCCCCCCCC(=O)O)C(=O)O)NC(=O)[C@H](CC(=O)O)NC(=O)[C@H](CO)NC(=O)[C@@H](NC(=O)[C@](C)(Cc1ccccc1F)NC(=O)[C@@H](NC(=O)CNC(=O)[C@H](CCC(=O)O)NC(=O)C(C)(C)NC(=O)[C@@H](N)Cc1ccc(O)cc1)[C@@H](C)O)[C@@H](C)O)[C@@H](C)CC)[C@@H](C)CC)C(=O)N[C@@H](CCC(=O)O)C(=O)NCC(=O)NCC(=O)N1CCC[C@H]1C(=O)N[C@@H](CO)C(=O)N[C@@H](CO)C(=O)NCC(=O)N[C@@H](C)C(=O)N1CCC[C@H]1C(=O)N1CCC[C@H]1C(=O)N1CCC[C@H]1C(=O)N[C@@H](CO)C(N)=O [Example 27]	> 958 nM	> 9950 nM	> 9950 nM	70.2 nM		6.78 nM	82.8 ± 1.14%	88.8%		110 ± 3.03%
